Read-outs that look alike come from different tables or passages of the source.
Legend:
LTA4H = target: T1, LTA4H (Homo sapiens, UniProt P09960); assay: Peptidase assay of LTA4H with pNa and AMC conjugates; assay type: biochemical; set-up: made in house; host or cells: Escherichia coli JM101; details: for AC50: activation; for fold change of specific activity with L-Arg-AMC / fold change of specific activity with L-Arg-pNa / fold change of specific activity with L-Pro-AMC: vs LTA4H without inhibitor (decrease); for fold change of specific activity with L-Ala-pNa / fold change of specific activity with L-Leu-pNa / fold change of specific activity with L-Val-pNa: vs LTA4H without inhibitor (increase); for Specific activity of LTA4H with L-Ala-pNa in the presence of inhibitor: substrate L-Ala-pNa; for Specific activity of LTA4H with L-Ala-pNa in the presence of inhibitor / Specific activity of LTA4H with L-Arg-AMC in the presence of inhibitor / Specific activity of LTA4H with L-Arg-pNa in the presence of inhibitor / Specific activity of LTA4H with L-Leu-pNa in the presence of inhibitor / Specific activity of LTA4H with L-Pro-AMC in the presence of inhibitor / Specific activity of LTA4H with L-Pro-pNa in the presence of inhibitor / Specific activity of LTA4H with L-Val-pNa in the presence of inhibitor: mean ± SEM, n = 3; for Specific activity of LTA4H with L-Arg-AMC in the presence of inhibitor: substrate L-Arg-AMC; for Specific activity of LTA4H with L-Arg-pNa in the presence of inhibitor: substrate L-Arg-pNa; for Specific activity of LTA4H with L-Leu-pNa in the presence of inhibitor: substrate L-Leu-pNa; for Specific activity of LTA4H with L-Pro-AMC in the presence of inhibitor: substrate L-Pro-AMC; for Specific activity of LTA4H with L-Pro-pNa in the presence of inhibitor: substrate L-Pro-pNa; for Specific activity of LTA4H with L-Val-pNa in the presence of inhibitor: substrate L-Val-pNa
T1 sequence (P09960 1-611): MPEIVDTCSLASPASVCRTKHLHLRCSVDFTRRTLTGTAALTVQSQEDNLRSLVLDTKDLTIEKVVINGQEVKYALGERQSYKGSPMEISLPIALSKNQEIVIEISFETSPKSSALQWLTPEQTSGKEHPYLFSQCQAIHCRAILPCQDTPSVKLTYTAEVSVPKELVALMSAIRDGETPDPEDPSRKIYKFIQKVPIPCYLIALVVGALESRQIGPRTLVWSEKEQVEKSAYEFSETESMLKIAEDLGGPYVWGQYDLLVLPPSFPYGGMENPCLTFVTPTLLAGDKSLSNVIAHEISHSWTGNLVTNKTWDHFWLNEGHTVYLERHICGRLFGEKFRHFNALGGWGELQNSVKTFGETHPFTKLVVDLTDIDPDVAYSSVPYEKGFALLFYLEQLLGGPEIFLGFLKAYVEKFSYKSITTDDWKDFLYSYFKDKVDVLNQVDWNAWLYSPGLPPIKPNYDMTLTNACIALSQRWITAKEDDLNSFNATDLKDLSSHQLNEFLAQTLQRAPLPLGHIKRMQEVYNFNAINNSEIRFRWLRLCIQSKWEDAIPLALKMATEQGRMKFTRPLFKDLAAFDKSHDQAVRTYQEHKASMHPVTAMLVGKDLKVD
Method: In addition, the aminopeptidase assay was performed with p-nitroanilide (pNa) and 7-amido-4-methylcoumarin (AMC) conjugates containing different N-terminal amino acids. Incubations were carried out with 1 μg LTA4H and 1 mM pNa substrates or 5 µM AMC substrates in 400 μL 10 mM Tris-HCl pH 7.8 containing 100 mM KCl at room temperature for 30 min. The absorbance of released pNa was measured after every 5 min at 405 nm using a TECAN Infinite M200 plate reader. The measurements with AMC derivatives were carried out using a black polystyrene 96-well plate and the fluorescence of released AMC at 360 nm/460 nm (ex/em) was recorded. Specific activities were calculated based on the standard curves of free pNA and AMC (Figure S10). The activation (AC50) or inhibition constants (IC50) were determined using the non-linear regression approach in the GraphPad Prism 9 program.

5-LOX = target: T2, 5-LOX (Homo sapiens, UniProt P09917); assay: 5-LOX product formation from intact PMNs: 5S-HETE (cellular activity of 5-LOX); assay type: cell-based; set-up: stimulated intact polymorphonuclear neutrophils (PMNs); endogenous in cells; host or cells: human primary polymorphonuclear neutrophils (PMNs) from peripheral blood; details: for inhibitory effect on the 5-LOX activity (5S-HETE) in PMNs with exogenous AA: 0.5 µM inhibitor, 0–20 µM AA
T2 sequence (P09917 1-674): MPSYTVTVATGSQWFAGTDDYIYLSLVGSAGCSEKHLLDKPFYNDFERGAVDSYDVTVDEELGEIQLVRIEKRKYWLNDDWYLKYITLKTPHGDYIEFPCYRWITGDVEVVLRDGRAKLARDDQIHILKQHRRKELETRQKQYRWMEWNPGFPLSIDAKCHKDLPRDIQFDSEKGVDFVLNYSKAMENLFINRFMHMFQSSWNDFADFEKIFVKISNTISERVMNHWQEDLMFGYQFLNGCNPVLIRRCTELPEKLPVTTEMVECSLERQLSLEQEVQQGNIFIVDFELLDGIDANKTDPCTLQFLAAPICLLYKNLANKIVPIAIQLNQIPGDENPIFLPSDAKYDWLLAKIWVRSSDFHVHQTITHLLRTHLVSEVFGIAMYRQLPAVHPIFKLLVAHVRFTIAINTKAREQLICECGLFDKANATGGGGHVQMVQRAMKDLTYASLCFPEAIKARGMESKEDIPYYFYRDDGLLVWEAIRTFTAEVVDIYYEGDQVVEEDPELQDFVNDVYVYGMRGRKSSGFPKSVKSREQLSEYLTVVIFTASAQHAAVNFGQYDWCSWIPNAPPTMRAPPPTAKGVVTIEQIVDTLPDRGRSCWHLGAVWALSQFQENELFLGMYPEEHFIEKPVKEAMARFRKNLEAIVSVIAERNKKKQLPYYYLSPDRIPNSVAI
Method: Human primary leukocytes were isolated from peripheral blood of healthy adult volunteers provided by the Institute of Transfusion Medicine at the University Hospital Greifswald as described before. All methods were performed in accordance with the Declaration of Helsinki. In brief, erythrocytes were removed by dextran sedimentation and leukocytes were separated by the density gradient centrifugation on a lymphocyte separation medium (Histopaque®-1077, Merck, Darmstadt, Germany). The remaining erythrocytes were removed by hypotonic lysis using water, and resulting polymorphonuclear neutrophils (PMNs) were resuspended in PBS containing 0.1% (w/v) glucose (PG buffer) or PG buffer with 1 mM CaCl2 (PGC buffer) as indicated. Resulting peripheral blood mononuclear cells (PBMC), including monocytes, were seeded in the RPMI 1640 medium supplemented with 10% (v/v) FCS, 100 U/mL penicillin, 100 µg/mL streptomycin and 2 mM L-glutamine in cell culture flasks (Greiner Bio-one, Frickenhausen, Germany) for 1.5 h at 37 °C and 5% CO2. Adherent monocytes were washed twice with PBS and were finally resuspended in the RPMI 1640 medium as described before.
PMNs (5 × 10^6 cells/mL) were diluted in PGC buffer and pre-incubated with the vehicle (0.1%; v/v) or compounds for 10 min at 37 °C prior to the stimulation with 2.5 µM A23187. After 10 min at 37 °C, treatments were stopped on ice with an equal volume of ice-cold methanol. Next, 530 µL acidified PBS containing 200 ng PGB1 as an internal standard were added to the sample followed by the solid phase extraction with on a RP18 column. […] Formed 5-LOX metabolites were analyzed as described previously.

[1] = 5 µM L-Arg-AMC, read-out: IC50, peptidase activity with L-Arg-AMC
[2] = 5 µM L-Pro-AMC, read-out: IC50, peptidase activity with L-Pro-AMC
[3] = 1 mM L-Arg-pNa, read-out: IC50, peptidase activity with L-Arg-pNa
[4] = 1 mM L-Lys-pNa, read-out: IC50, peptidase activity with L-Lys-pNa
[5] = 1 mM L-Ala-pNa, read-out: AC50, peptidase activity with L-Ala-pNa
[6] = 1 mM L-Leu-pNa, read-out: AC50, peptidase activity with L-Leu-pNa
[7] = 1 mM L-Val-pNa, read-out: AC50, peptidase activity with L-Val-pNa
[8] = A23187-activated intact PMNs, 5S-HETE formation, read-out: IC50 on the 5-LOX activity (5S-HETE) in PMNs

SMILES | IC50 (LTA4H; [1]) | IC50 (LTA4H; [2]) | IC50 (LTA4H; [3]) | IC50 (LTA4H; [4]) | AC50 (LTA4H; [5]) | AC50 (LTA4H; [6]) | AC50 (LTA4H; [7]) | fold change of specific activity with L-Arg-AMC (LTA4H; in parentheses) | fold change of specific activity with L-Arg-pNa (LTA4H; in parentheses) | fold change of specific activity with L-Pro-AMC (LTA4H; in parentheses) | fold change of specific activity with L-Ala-pNa (LTA4H; in parentheses) | fold change of specific activity with L-Leu-pNa (LTA4H; in parentheses) | fold change of specific activity with L-Val-pNa (LTA4H; in parentheses) | Specific activity of LTA4H with L-Ala-pNa in the presence of inhibitor (LTA4H) | Specific activity of LTA4H with L-Arg-AMC in the presence of inhibitor (LTA4H) | Specific activity of LTA4H with L-Arg-pNa in the presence of inhibitor (LTA4H) | Specific activity of LTA4H with L-Leu-pNa in the presence of inhibitor (LTA4H) | Specific activity of LTA4H with L-Pro-AMC in the presence of inhibitor (LTA4H) | Specific activity of LTA4H with L-Pro-pNa in the presence of inhibitor (LTA4H) | Specific activity of LTA4H with L-Val-pNa in the presence of inhibitor (LTA4H) | also measured
Nc1nc(-c2ccc(Cc3ccccc3)cc2)co1 [TTO, 4-(4-benzylphenyl) oxazol-2-amine] | 440 ± 140 nM | 310 ± 50 nM | 460 ± 50 nM | 890 ± 710 nM | 280 ± 40 nM | 560 ± 60 nM | 210 ± 20 nM | 3 x | 89 x | 2 x | 9 x | 12 x | 30 x | 93.0 ± 1.7 µmol/µg/min | 9.9 ± 0.1 µmol/µg/min | 0.2 ± 0.1 µmol/µg/min | 46.9 ± 1.7 µmol/µg/min | 15.8 ± 0.2 µmol/µg/min | 2.3 ± 0.2 µmol/µg/min | 24.4 ± 0.4 µmol/µg/min | fold change of specific activity with L-Pro-pNa (LTA4H; in parentheses, vs LTA4H without inhibitor): 1.3 x; inhibitory effect on the 5-LOX activity (5S-HETE) in PMNs with exogenous AA (5-LOX): did not have any inhibitory effects; IC50 (5-LOX; [8]): 2300 nM
Nc1nc(-c2ccc(Cc3ccccc3)cc2)cs1 [ARM1, 4-(4-benzylphenyl) thiazol-2-amine, reference compound] | 330 ± 90 nM | 300 ± 70 nM | 360 ± 60 nM | 1060 ± 240 nM | 180 ± 40 nM | 480 ± 50 nM | 230 ± 20 nM |  |  |  |  |  |  | 79.6 ± 7.6 µmol/µg/min | 10.1 ± 0.1 µmol/µg/min | 0.20 ± 0.03 µmol/µg/min | 46.3 ± 1.7 µmol/µg/min | 16.0 ± 0.2 µmol/µg/min | 2.65 ± 0.12 µmol/µg/min | 24.9 ± 0.8 µmol/µg/min | IC50 (5-LOX; [8]): 1700 nM
Nc1nc(-c2ccc(Cc3ccccc3)cc2)c[se]1 [TTSe, 4-(4-benzylphenyl) selenazol-2-amine] |  |  |  |  |  |  |  | 3 x | 94 x | 2 x | 9 x | 10 x | 30 x | 88.0 ± 4.6 µmol/µg/min | 10.1 ± 0.1 µmol/µg/min | 0.20 ± 0.07 µmol/µg/min | 37.6 ± 1.1 µmol/µg/min | 15.7 ± 0.2 µmol/µg/min | 2.8 ± 0.1 µmol/µg/min | 24.6 ± 0.5 µmol/µg/min | AC50 (LTA4H; AC50, peptidase activity with L-Ala-pNa, 1 mM L-Ala-pNa): 210 ± 30 nM; AC50 (LTA4H; AC50, peptidase activity with L-Leu-pNa, 1 mM L-Leu-pNa): 520 ± 50 nM; AC50 (LTA4H; AC50, peptidase activity with L-Val-pNa, 1 mM L-Val-pNa): 270 ± 30 nM; IC50 (LTA4H; IC50, peptidase activity with L-Arg-AMC, 5 µM L-Arg-AMC): 380 ± 90 nM; IC50 (LTA4H; IC50, peptidase activity with L-Arg-pNa, 1 mM L-Arg-pNa): 490 ± 100 nM; IC50 (LTA4H; IC50, peptidase activity with L-Lys-pNa, 1 mM L-Lys-pNa): 1010 ± 360 nM; IC50 (LTA4H; IC50, peptidase activity with L-Pro-AMC, 5 µM L-Pro-AMC): 250 ± 20 nM; IC50 (5-LOX): 2300 nM; inhibitory effect on the 5-LOX activity (5S-HETE) in PMNs with exogenous AA (5-LOX): did not have any inhibitory effects

From article PMC10145651, “Modulation of the 5-Lipoxygenase Pathway by Chalcogen-Containing Inhibitors of Leukotriene A4 Hydrolase” (International Journal of Molecular Sciences, 2023)
